Assays:
TXNIP/TRX interaction = target: T1, TXNIP/TRX interaction (Homo sapiens, UniProt Q9H3M7); test: TXNIP/TRX co-immunoprecipitation in THP1 cells; assay type: cell-based; conditions: 25 mM glucose, 5 uM compound, up to 72 hours
T1 construct: endogenous in cells; host or cells: THP1 cells cultured under 25 mM glucose; nuclear cell extracts
T1 sequence (Q9H3M7 1-391): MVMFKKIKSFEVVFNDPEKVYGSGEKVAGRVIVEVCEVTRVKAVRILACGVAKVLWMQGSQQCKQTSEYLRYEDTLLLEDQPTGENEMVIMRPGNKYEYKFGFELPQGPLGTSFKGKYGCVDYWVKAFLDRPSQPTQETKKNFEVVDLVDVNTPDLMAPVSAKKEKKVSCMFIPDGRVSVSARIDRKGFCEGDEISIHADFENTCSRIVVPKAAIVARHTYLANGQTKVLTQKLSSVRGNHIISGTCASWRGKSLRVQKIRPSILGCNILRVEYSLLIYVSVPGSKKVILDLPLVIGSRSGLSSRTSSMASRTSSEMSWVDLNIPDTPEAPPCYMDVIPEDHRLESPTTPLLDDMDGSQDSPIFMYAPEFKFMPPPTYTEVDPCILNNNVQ
Experimental: FIG. 8. Effects of C30 and C38 on TXNIP/TRX interaction. THP1 cells were cultured under 25 mM glucose with 5 uM C30 or C38 for 72 hours. Aliquots were taken at different time points as indicated and nuclear cell extracts were prepared. Standard co-IP was performed with mouse anti-TRX Ab overnight. Beads were washed with buffer and blots treated with rabbit anti-TXNIP antibody (Ab) for detection of the complex (upper band).
Experimental testing of small molecules: We developed several different bench-based assays to perform rigorous and reproducible tests for the predicted hit molecules. These assays include testing direct binding to TXNIP as well as functional assays including under diabetic high glucose conditions. The assays are: (1) drug affinity responsive target stability test that tests the direct binding of the compounds. In this assay, when a compound binds to its target molecule, it can reduce the rate of its proteolytic digestion. (2) This assay looks for compounds that can interfere with the interaction between TXNIP and TRX in THP-1 monocytes treated with high glucose. TXNIP is highly expressed in cells treated with high glucose, and therefore would have high concentration of TXNIP/TRX complexes in the cell extract. Co-immunoprecipitation was done in these extracts through adding TRX antibody, and then the effects of compounds added were tested. […]

SOD1 mRNA = SOD1 mRNA in primary human pancreatic islets under 25 mM glucose (RT-PCR); assay type: cell-based; conditions: human pancreatic islets (500 IEQ), 2.5 uM, 48 h
Experimental: FIGS. 12A-12B. […] Human pancreatic islets (500 IEQ) were cultured with PIM(R) (Prodo Labs) medium under 25 mM glucose with 2.5 uM of the indicated compounds for 48 h. Total RNA was collected. RT-PCR was performed in triplicate and data shown are the mean±SEM. Statistical analysis was performed using one-way ANOVA: *p<0.0001. […] Human pancreatic islets (500 IEQ) were cultured with PIM(R) (Prodo Labs) under 25 mM glucose with 2.5 uM of the indicated compounds for 48 h. Total RNA was collected. RT-PCR was performed in triplicate and data shown are the mean+SEM. Statistical analysis was performed using one-way ANOVA: *p<0.0001.
Testing lead compounds in human pancreatic islets. To further explore the effects of the lead compounds as possible therapies in diabetes, we conducted translational studies in primary human pancreatic islets (obtained from the City of Hope islet isolation center).
RNA extraction and quantitative RT-PCR. RNA was extracted using the Direct-zol™ RNA MiniPrep Plus (Zymo Research). […] Diluted cDNA was quantified using real-time PCR performed with Power SYBR Green qPCR MasterMix (Applied Biosystem) and 7500 real-time PCR system (Applied Biosystems). […]

TXNIP mRNA = TXNIP mRNA expression in THP1 cells under 25 mM glucose (RT-PCR); assay type: cell-based, human; conditions: for TXNIP mRNA expression: concentration range
Experimental: FIGS. 2A-2B. FIG. 2A: C30 and C38 inhibited TXNIP mRNA expression in THP1 cells. THP1 cells were cultured under 25 mM glucose with the indicated concentrations of compounds for 72 hours. Cells were then collected for total RNA preparation. RT-PCR was performed, and data shown are the mean±SEM from triplicates. Statistical analysis was performed using one-way ANOVA, *p<0.0001. FIG. 2B: C30 and C38 inhibited TNF-α mRNA expression in THP1 cells. THP1 cells were cultured under 25 mM glucose with various concentrations of compounds as indicated for 72 hours and collected for total RNA preparation. RT-PCR was performed, and data shown are the mean±SEM from triplicates. Statistical analysis was performed using one-way ANOVA: *<0.02; **<0.0001.
FIG. 6. C38 analogues effects on TXNIP mRNA expression in THP1 cells. THP1 cells were cultured under 25 mM glucose with 2.5 uM of compounds for 72 h. Total RNA was collected. RT-PCR was performed in triplicate and data shown are the mean±SEM. Statistical analysis was performed using one-way ANOVA: *p<0.0001.
FIG. 7. C38 and analogue E2 effects on TXNIP mRNA levels in THP cells. THP1 cells were cultured under 25 mM glucose with several concentration of C38 and E2 as indicated for 72 hours. Total RNA was prepared. RT-PCR was performed in triplicate and data shown are the mean±SEM. Statistical analysis was performed for each column vs. without compound control using one-way ANOVA: *p<0.0001.
C30 and C38 inhibited TXNIP mRNA expression in THP1 cells.
Discovery of lead compound analogues. A search of chemical libraries was performed in the interest of identifying possible lead compound analogues. Analogues to C38 were identified. To determine the properties of the analogues, we treated THP1 cells with the E batch compounds for three days, prepared RNA and measured TXNIP mRNA levels.
RNA extraction and quantitative RT-PCR. RNA was extracted using the Direct-zol™ RNA MiniPrep Plus (Zymo Research). Reverse transcription of RNA samples into cDNA was performed using the GeneAmp RNA PCR Kit (Applied Biosystems), dNTP (from Roche Applied Science), Rnase inhibitor, MULV Reverse Transcriptase and Random hexamers reagent (all from Invitrogen). Diluted cDNA was quantified using real-time PCR performed with Power SYBR Green qPCR MasterMix (Applied Biosystem) and 7500 real-time PCR system (Applied Biosystems). The HPRT1 gene was used as an internal control.

| TXNIP association/interaction with TRX (co-IP band) (TXNIP/TRX interaction) | Compound | SOD1 mRNA levels (SOD1 mRNA) | concentration at which inhibition of TXNIP mRNA is still effective (TXNIP mRNA; 72 hours) [µM] | TXNIP mRNA expression (TXNIP mRNA; 72 hours) | TXNIP mRNA expression (C38 analogues screen) (TXNIP mRNA; 2.5 uM compound, 72 h) |
| --- | --- | --- | --- | --- | --- |
| significantly reduced | COc1cc(N2CC[C@@H](c3ccc4ccccc4c3)[C@H](O)C2)nc(N)n1 [Compound C30] | does not alter SOD1 mRNA levels | 0.15 | inhibit TXNIP expression in a dose-dependent manner | – |
| this interference was clearly reduced | c1ccc(CCNc2ncnc3c2oc2ccccc23)cc1 [Compound C38] | does not alter SOD1 mRNA levels | – | inhibit TXNIP expression in a dose-dependent manner | strongly inhibited TXNIP mRNA expression |
